Results taken from US10457691B2, “Macrocyclic kinase inhibitors and uses thereof” (Dana-Farber Cancer Institute, Inc., priority 2014, dated 2019).

Tests used:
Assay type in all cases: biochemical
Conditions in all cases: read-out: Activity of the protein kinase when treated with compound I-1 (% control)
Aurora A = Aurora A (Homo sapiens, UniProt O14965); assay: Protein kinase assay ([γ-32P] ATP), Aurora A
Procedure: (§1) In another set of experiments, the activities of the compounds described herein against various protein kinases were determined according to the methods reported in Hastie et al., Nature Protocols, 2006, 1, 968-971.
(§2) Enzyme dilution buffer. This buffer consisted of 50 mM Tris-HCl, pH 7.5, 0.1 mM EGTA, 1 mg ml^−1 bovine serum albumin and 0.1% (vol/vol) 2-mercaptoethanol.
(§3) 10× concentrated assay buffer. An assay buffer of 500 mM Tris-HCl, pH 7.5, 1 mM EGTA, and 100 mM magnesium acetate was used for assay of a wide variety of protein kinases. In some experiments, other cofactors were included (e.g., calcium ions and calmodulin were included for assay of calcium-calmodulindependent protein kinases).
(§4) 1 mM [γ-^32P] ATP. The specific activity of the [γ-^32P] ATP solution was 1×10^5 to 1×10^6 c.p.m. per nmol depending on what was needed to produce an optimal signal/noise ratio. […] To measure the concentration of ATP, a sample of such a stock solution was diluted to 20 μM, and the absorbance of the diluted sample was measured at 259 nm. The absorbance of a 20-μM stock solution of ATP at 259 nm was about 0.31. […] ATP to produce a radioactivity of 1×10^5 to 1×10^6 c.p.m. per nmol. […]
(§5) 13) Measure radioactivity in the samples by Cerenkov counting (e.g., without liquid scintillation fluid) in a liquid scintillation counter using a “^32P program”. […]

Aurora B = Aurora B (Homo sapiens, UniProt Q96GD4); assay: Protein kinase assay ([γ-32P] ATP), Aurora B
Sequence of Aurora B (Q96GD4 whole entry): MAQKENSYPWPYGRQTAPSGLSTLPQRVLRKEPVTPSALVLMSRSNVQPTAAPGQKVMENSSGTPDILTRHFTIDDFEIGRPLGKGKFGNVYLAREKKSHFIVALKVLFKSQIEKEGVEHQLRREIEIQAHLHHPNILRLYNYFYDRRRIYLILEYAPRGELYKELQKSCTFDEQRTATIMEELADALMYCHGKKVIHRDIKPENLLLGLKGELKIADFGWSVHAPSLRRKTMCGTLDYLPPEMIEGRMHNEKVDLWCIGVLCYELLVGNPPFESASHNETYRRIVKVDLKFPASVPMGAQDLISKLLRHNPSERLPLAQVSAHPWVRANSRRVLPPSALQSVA
Procedure: as §1, §2, §3, §4, §5

CAMK1 = CAMK1 (Homo sapiens, UniProt Q14012); assay: Protein kinase assay ([γ-32P] ATP), CAMK1
Procedure: as §1, §2, §3, §4, §5

ERK8 = ERK8 (Homo sapiens, UniProt Q8TD08); assay: Protein kinase assay ([γ-32P] ATP), ERK8
Sequence of ERK8 (Q8TD08 whole entry): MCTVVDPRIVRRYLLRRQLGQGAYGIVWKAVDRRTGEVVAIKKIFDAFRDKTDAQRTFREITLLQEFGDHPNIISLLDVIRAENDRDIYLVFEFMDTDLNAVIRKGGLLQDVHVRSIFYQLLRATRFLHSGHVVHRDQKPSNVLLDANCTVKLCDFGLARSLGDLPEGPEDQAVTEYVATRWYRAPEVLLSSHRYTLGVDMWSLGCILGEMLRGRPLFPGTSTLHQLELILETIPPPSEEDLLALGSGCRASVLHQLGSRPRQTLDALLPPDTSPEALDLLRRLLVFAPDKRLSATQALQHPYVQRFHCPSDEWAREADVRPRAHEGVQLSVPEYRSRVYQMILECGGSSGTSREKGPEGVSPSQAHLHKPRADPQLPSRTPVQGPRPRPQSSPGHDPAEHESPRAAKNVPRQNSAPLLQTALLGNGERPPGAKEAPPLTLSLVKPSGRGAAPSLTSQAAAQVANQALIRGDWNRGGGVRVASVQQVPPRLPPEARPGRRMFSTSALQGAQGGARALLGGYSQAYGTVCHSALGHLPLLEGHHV
Procedure: as §1, §2, §3, §4, §5

HIPK3 = HIPK3 (Homo sapiens, UniProt Q9H422); assay: Protein kinase assay ([γ-32P] ATP), HIPK3
Procedure: as §1, §2, §3, §4, §5

IGF-1R = IGF-1R (Homo sapiens, UniProt P08069); assay: Protein kinase assay ([γ-32P] ATP), IGF-1R
Procedure: as §1, §2, §3, §4, §5

IKKe = IKKe (Homo sapiens, UniProt Q14164); assay: Protein kinase assay ([γ-32P] ATP), IKKe
Procedure: as §1, §2, §3, §4, §5

LKB1 = LKB1 (Homo sapiens, UniProt Q15831); assay: Protein kinase assay ([γ-32P] ATP), LKB1
Sequence of LKB1 (Q15831 whole entry): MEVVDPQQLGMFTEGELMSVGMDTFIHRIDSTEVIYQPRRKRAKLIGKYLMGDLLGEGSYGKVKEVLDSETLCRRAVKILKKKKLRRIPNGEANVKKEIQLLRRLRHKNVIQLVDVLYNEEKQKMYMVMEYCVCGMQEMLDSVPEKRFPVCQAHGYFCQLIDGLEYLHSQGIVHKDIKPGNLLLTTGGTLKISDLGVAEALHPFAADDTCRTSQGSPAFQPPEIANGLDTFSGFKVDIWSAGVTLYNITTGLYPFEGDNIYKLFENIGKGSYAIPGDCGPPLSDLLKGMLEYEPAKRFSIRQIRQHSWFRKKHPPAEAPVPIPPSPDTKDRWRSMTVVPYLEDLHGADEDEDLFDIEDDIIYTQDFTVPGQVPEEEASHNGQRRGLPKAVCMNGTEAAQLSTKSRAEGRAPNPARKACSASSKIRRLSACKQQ
Sequence of LKB1 (Q7RTN6 whole entry partner): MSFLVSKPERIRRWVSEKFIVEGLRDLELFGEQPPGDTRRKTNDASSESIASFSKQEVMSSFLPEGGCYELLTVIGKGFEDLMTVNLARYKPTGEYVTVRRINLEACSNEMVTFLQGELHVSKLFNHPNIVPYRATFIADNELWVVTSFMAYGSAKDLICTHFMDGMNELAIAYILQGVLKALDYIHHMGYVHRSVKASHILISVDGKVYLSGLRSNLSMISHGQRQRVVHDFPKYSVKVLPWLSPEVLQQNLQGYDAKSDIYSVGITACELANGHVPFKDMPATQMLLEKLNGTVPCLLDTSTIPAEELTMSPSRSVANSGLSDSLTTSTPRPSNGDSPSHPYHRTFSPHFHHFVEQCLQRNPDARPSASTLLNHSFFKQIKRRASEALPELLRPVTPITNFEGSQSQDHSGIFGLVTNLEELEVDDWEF
Sequence of LKB1 (Q9Y376 whole entry partner): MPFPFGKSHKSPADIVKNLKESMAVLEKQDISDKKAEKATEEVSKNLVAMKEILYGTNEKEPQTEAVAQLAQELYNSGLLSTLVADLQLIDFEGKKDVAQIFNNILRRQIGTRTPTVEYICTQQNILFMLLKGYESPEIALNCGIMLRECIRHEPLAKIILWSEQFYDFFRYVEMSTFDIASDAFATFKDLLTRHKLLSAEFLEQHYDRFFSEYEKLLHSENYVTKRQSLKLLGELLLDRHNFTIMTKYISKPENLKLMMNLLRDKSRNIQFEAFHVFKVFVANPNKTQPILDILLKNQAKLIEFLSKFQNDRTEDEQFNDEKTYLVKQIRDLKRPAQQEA
Procedure: as §1, §2, §3, §4, §5

MST3 = MST3 (Homo sapiens, UniProt Q9Y6E0); assay: Protein kinase assay ([γ-32P] ATP), MST3
Sequence of MST3 (Q9Y6E0 whole entry): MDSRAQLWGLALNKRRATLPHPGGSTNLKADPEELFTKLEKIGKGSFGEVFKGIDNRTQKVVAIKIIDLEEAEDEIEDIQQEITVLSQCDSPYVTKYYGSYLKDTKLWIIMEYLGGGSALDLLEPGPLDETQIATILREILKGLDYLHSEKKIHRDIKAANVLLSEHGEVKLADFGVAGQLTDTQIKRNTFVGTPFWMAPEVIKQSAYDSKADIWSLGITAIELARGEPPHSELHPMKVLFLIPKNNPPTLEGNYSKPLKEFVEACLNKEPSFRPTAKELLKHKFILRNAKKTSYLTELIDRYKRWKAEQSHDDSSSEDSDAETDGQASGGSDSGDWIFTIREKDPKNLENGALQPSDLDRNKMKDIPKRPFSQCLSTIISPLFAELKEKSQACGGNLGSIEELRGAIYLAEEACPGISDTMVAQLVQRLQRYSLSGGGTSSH
Procedure: as §1, §2, §3, §4, §5

p38d MAPK = p38d MAPK (Homo sapiens, UniProt O15264); assay: Protein kinase assay ([γ-32P] ATP), p38d MAPK
Procedure: as §1, §2, §3, §4, §5

p38g MAPK = p38g MAPK (Homo sapiens, UniProt P53778); assay: Protein kinase assay ([γ-32P] ATP), p38g MAPK
Sequence of p38g MAPK (P53778 whole entry): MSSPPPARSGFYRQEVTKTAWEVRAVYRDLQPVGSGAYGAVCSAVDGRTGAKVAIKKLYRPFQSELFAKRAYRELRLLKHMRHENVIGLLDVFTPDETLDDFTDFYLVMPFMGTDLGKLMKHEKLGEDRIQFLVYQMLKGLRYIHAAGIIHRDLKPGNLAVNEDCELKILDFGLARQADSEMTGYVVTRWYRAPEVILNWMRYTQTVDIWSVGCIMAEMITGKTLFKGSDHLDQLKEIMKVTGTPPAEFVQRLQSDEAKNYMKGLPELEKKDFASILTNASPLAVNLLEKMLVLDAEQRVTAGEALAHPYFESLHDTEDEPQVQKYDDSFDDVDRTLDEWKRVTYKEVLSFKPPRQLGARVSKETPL
Procedure: as §1, §2, §3, §4, §5

PKCz = PKCz (Homo sapiens, UniProt Q05513); assay: Protein kinase assay ([γ-32P] ATP), PKCz
Procedure: as §1, §2, §3, §4, §5

PKD1 = PKD1 (Homo sapiens, UniProt Q15139); assay: Protein kinase assay ([γ-32P] ATP), PKD1
Sequence of PKD1 (Q15139 whole entry): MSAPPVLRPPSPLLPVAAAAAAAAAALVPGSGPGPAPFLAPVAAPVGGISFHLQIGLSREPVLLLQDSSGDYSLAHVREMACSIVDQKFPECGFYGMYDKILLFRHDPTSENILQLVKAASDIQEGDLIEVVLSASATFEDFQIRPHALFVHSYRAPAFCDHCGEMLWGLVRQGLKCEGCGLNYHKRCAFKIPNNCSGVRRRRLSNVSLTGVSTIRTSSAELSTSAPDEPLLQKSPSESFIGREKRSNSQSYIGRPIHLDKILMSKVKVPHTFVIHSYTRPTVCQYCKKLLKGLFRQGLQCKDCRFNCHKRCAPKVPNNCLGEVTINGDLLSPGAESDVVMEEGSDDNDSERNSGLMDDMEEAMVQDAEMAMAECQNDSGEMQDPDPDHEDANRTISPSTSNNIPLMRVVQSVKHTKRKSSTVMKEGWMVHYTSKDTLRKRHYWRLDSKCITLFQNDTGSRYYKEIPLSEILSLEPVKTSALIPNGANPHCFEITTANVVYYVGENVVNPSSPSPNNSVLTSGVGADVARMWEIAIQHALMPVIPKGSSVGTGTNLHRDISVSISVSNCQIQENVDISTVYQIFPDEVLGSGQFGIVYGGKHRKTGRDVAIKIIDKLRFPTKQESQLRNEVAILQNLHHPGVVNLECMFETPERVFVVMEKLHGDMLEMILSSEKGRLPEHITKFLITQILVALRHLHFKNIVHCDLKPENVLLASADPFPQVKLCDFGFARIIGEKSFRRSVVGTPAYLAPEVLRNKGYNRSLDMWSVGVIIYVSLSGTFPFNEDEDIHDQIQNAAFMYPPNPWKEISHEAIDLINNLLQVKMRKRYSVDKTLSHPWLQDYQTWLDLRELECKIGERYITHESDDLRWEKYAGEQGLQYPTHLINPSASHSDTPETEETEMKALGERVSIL
Procedure: as §1, §2, §3, §4, §5

PLK1 = PLK1 (Homo sapiens, UniProt P53350); assay: Protein kinase assay ([γ-32P] ATP), PLK1
Sequence of PLK1 (P53350 whole entry, species assumed): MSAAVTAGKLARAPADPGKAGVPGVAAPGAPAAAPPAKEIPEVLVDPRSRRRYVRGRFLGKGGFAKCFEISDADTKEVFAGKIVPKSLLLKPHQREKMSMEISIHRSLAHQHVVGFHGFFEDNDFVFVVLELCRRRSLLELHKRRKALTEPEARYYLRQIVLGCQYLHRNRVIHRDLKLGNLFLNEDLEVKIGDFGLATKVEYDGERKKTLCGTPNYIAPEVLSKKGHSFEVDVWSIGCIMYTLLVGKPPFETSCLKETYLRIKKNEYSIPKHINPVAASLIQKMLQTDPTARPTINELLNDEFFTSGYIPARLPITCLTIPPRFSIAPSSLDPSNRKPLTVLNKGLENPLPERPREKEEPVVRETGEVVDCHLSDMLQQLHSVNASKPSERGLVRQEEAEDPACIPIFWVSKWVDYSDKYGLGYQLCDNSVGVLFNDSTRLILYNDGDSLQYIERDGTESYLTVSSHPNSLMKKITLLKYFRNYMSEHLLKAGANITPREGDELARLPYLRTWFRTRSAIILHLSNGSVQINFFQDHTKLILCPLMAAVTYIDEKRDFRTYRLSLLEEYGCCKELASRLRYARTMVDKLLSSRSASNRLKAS
Procedure: as §1, §2, §3, §4, §5

PRAK = PRAK (Homo sapiens, UniProt Q8IW41); assay: Protein kinase assay ([γ-32P] ATP), PRAK
Procedure: as §1, §2, §3, §4, §5

PRK2 = PRK2 (Homo sapiens, UniProt Q16513); assay: Protein kinase assay ([γ-32P] ATP), PRK2
Procedure: as §1, §2, §3, §4, §5

TESK1 = TESK1 (Homo sapiens, UniProt Q15569); assay: Protein kinase assay ([γ-32P] ATP), TESK1
Procedure: as §1, §2, §3, §4, §5

[1] = 0.1 μM of compound I-1, DMSO control = 100%
[2] = 1 μM of compound I-1, DMSO control = 100%

Sequence of Aurora A (O14965 whole entry): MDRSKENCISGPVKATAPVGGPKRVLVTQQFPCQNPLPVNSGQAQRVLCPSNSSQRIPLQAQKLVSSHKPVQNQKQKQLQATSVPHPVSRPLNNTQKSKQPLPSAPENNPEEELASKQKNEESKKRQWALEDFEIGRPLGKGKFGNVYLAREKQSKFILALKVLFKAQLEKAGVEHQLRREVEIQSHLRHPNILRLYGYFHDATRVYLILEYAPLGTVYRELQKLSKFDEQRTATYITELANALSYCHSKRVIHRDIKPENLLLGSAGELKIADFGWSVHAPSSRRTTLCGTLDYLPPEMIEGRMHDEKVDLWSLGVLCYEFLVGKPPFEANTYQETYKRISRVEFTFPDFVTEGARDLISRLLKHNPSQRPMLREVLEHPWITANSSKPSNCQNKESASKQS

`Cc1cccc(C)c1NC(=O)N1C/C=C\COc2cccc(c2)Nc2cc1ncn2` [Compound I-1] gave a remaining activity at 0.1 µM (Aurora A; [1]) of 102%, a remaining activity at 1 µM (Aurora A; [2]) of 103% and a remaining activity at 0.1 µM (Aurora B; [1]) of 89%. The remaining activity at 1 µM (Aurora B; [2]) was 78%, the remaining activity at 0.1 µM (CAMK1; [1]) was 115% and the remaining activity at 1 µM (CAMK1; [2]) was 56%. It also gave a remaining activity at 0.1 µM (ERK8; [1]) of 99%, a remaining activity at 1 µM (ERK8; [2]) of 72% and a remaining activity at 0.1 µM (HIPK3; [1]) of 89%. For the same compound, the remaining activity at 1 µM (HIPK3; [2]) was 81%, the remaining activity at 0.1 µM (IGF-1R; [1]) was 109% and the remaining activity at 1 µM (IGF-1R; [2]) was 61%. The remaining activity at 0.1 µM (IKKe; [1]) was 111%, the remaining activity at 1 µM (IKKe; [2]) was 90% and the remaining activity at 0.1 µM (LKB1; [1]) was 99%. For the same compound, the remaining activity at 1 µM (LKB1; [2]) was 65%, the remaining activity at 0.1 µM (MST3; [1]) was 91% and the remaining activity at 1 µM (MST3; [2]) was 87%. The remaining activity at 0.1 µM (p38d MAPK; [1]) was 110%, the remaining activity at 1 µM (p38d MAPK; [2]) was 73% and the remaining activity at 0.1 µM (p38g MAPK; [1]) was 101%. The remaining activity at 1 µM (p38g MAPK; [2]) was 88%, the remaining activity at 0.1 µM (PKCz; [1]) was 111% and the remaining activity at 1 µM (PKCz; [2]) was 82%. It also gave a remaining activity at 0.1 µM (PKD1; [1]) of 63%, a remaining activity at 1 µM (PKD1; [2]) of 29% and a remaining activity at 0.1 µM (PLK1; [1]) of 104%. For the same compound, the remaining activity at 1 µM (PLK1; [2]) was 101%, the remaining activity at 0.1 µM (PRAK; [1]) was 107% and the remaining activity at 1 µM (PRAK; [2]) was 84%. The remaining activity at 0.1 µM (PRK2; [1]) was 112%, the remaining activity at 1 µM (PRK2; [2]) was 87% and the remaining activity at 0.1 µM (TESK1; [1]) was 40%. For the same compound, the remaining activity at 1 µM (TESK1; [2]) was 21%.
